Test results as given in ChEMBL document CHEMBL1124017, “Synthesis, absolute configuration, and molecular modeling study of etoxadrol, a potent phencyclidine-like agonist” (J Med Chem, 1988).
pKi: −log10 of the molar value.

Columns and labels:
Glutamate NMDA receptor = assay: Displacement of [3H]TCP from tissue homogenate preparation of whole rat brain minus cerebellum; assay type: tissue-based
Rattus norvegicus = species on record: Rattus norvegicus; assay: Behavioral potency by which rat discriminate phencyclidine from saline in a 2 lever drug discrimination procedure; assay type: functional

Structure (SMILES) | pKi (Glutamate NMDA receptor) | ED50 (Rattus norvegicus) [µM]
CC[C@@]1(c2ccccc2)OC[C@H]([C@H]2CCCCN2)O1.CC[C@]1(c2ccccc2)OC[C@H]([C@H]2CCCCN2)O1 | 4.42 | >100
CC[C@@]1(c2ccccc2)OC[C@@H]([C@@H]2CCCCN2)O1.CC[C@]1(c2ccccc2)OC[C@@H]([C@@H]2CCCCN2)O1 | 4.40 | >100
CC[C@@]1(c2ccccc2)OC[C@H]([C@@H]2CCCCN2)O1 | 5.43 | –
CC[C@@]1(c2ccccc2)OC[C@@H]([C@H]2CCCCN2)O1 | 5.64 | >100
CC[C@]1(c2ccccc2)OC[C@H]([C@@H]2CCCCN2)O1 [ETOXADROL] | 6.97 | 2.4
